According to patent US20240343681A1, “MOLECULES HAVING PESTICIDAL UTILITY AND INTERMEDIATES AND PROCESSES RELATED THERETO” (priority 2021, published 2024):

Tests used:
[1] = test system: Beet Armyworm (Spodoptera exigua, LAPHEG) second instar larva; assay: Bioassay on beet armyworm (BAW), 128-well diet tray assay; assay type: in vivo; conditions: 50 μg/cm^2 on artificial diet, 25° C., five days
Procedure, shortened: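 Test molecule in 90:10 acetone–water applied at 50 μg/cm^2 onto 1 mL artificial diet and dried; one second-instar larva per well, eight wells. Held 5 days at 25 °C, 14:10 light–dark; percent mortality averaged over the eight wells.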

[2] = test system: Yellow Fever Mosquito (Aedes aegypti, AEDSAE) larvae; assay: Bioassay on yellow fever mosquito (YFM), 96-well plate larval assay; assay type: in vivo; conditions: 4000 ppm (master plate solution), about 1 day-old larvae, 3 days
Method: Example B: Bioassays on Yellow Fever Mosquito (Aedes aegypti, AEDSAE) (“YFM”)
Master plates containing 400 μg of a molecule dissolved in 100 μL of dimethyl sulfoxide (DMSO) (equivalent to a 4000 ppm solution) are used. A master plate of assembled molecules contains 15 μL per well. To this plate, 135 μL of a 90:10 water/acetone mixture is added to each well. A robot (Biomek® NXP Laboratory Automation Workstation) is programmed to dispense 15 μL aspirations from the master plate into an empty 96-well shallow plate (“daughter” plate). There are 6 reps (“daughter” plates) created per master. The created “daughter” plates are then immediately infested with YFM larvae.
The day before plates are to be treated, mosquito eggs are placed in Millipore water containing liver powder to begin hatching (4 g into 400 mL). After the “daughter” plates are created using the robot, they are infested with 220 μL of the liver powder/larval mosquito mixture (about 1 day-old larvae). After plates are infested with mosquito larvae, a non-evaporative lid is used to cover the plate to reduce drying. Plates are held at room temperature for 3 days prior to grading. After 3 days, each well is observed and scored based on mortality.

## N#Cc1ccc(C(=O)Nc2cc(NC(=O)[C@H]3[C@H](c4cc(Cl)cc(Cl)c4)C3(Cl)Cl)ccc2Cl)cc1F (racemic) [F72, trans-rac-N-(2-Chloro-5-(2,2-dichloro-3-(3,5-dichlorophenyl)cyclopropane-1-carboxamido)phenyl)-4-cyano-3-fluorobenzamide]
[1]
  activity against BAW (percent mortality, averaged over eight wells): exhibited activity
[2]
  activity against YFM (scored based on mortality): exhibited activity

## Cc1cccc(C(=O)Nc2cc(NC(=O)[C@H]3[C@H](c4cc(Cl)cc(Cl)c4)C3(Cl)Cl)ccc2Cl)c1 (racemic) [F74, trans-rac-N-(2-Chloro-5-(2,2-dichloro-3-(3,5-dichlorophenyl)cyclopropane-1-carboxamido)phenyl)-3-methylbenzamide]
[1]
  activity against BAW (percent mortality, averaged over eight wells): exhibited activity
[2]
  activity against YFM (scored based on mortality): exhibited activity

## Cc1ccc(C(=O)Nc2cc(NC(=O)[C@H]3[C@H](c4cc(Cl)cc(Cl)c4)C3(Cl)Cl)ccc2Cl)cc1 (racemic) [F75, trans-rac-N-(2-Chloro-5-(2,2-dichloro-3-(3,5-dichlorophenyl)cyclopropane-1-carboxamido)phenyl)-4-methylbenzamide]
[1]
  activity against BAW (percent mortality, averaged over eight wells): exhibited activity
[2]
  activity against YFM (scored based on mortality): exhibited activity

## Cc1cc(F)ccc1C(=O)Nc1cc(NC(=O)[C@H]2[C@H](c3cc(Cl)cc(Cl)c3)C2(Cl)Cl)ccc1Cl (racemic) [F77, trans-rac-N-(2-Chloro-5-(2,2-dichloro-3-(3,5-dichlorophenyl)cyclopropane-1-carboxamido)phenyl)-4-fluoro-2-methylbenzamide]
[1]
  activity against BAW (percent mortality, averaged over eight wells): exhibited activity
[2]
  activity against YFM (scored based on mortality): exhibited activity

## O=C(Nc1cc(NC(=O)[C@H]2[C@H](c3cc(Cl)cc(Cl)c3)C2(Cl)Cl)ccc1Cl)c1ccccc1Cl (racemic) [F78, trans-rac-2-Chloro-N-(2-chloro-5-(2,2-dichloro-3-(3,5-dichlorophenyl)cyclopropane-1-carboxamido)phenyl)benzamide]
[1]
  activity against BAW (percent mortality, averaged over eight wells): exhibited activity
[2]
  activity against YFM (scored based on mortality): exhibited activity

## O=C(Nc1cc(NC(=O)[C@H]2[C@H](c3cc(Cl)cc(Cl)c3)C2(Cl)Cl)ccc1Cl)c1ccc(Cl)cc1 (racemic) [F79, trans-rac-4-Chloro-N-(2-chloro-5-(2,2-dichloro-3-(3,5-dichlorophenyl)cyclopropane-1-carboxamido)phenyl)benzamide]
[1]
  activity against BAW (percent mortality, averaged over eight wells): exhibited activity
[2]
  activity against YFM (scored based on mortality): exhibited activity

## O=C(Nc1cc(NC(=O)[C@H]2[C@H](c3cc(Cl)cc(Cl)c3)C2(Cl)Cl)ccc1Cl)c1cc(Cl)cc(Cl)c1 (racemic) [F80, trans-rac-3,5-Dichloro-N-(2-chloro-5-(2,2-dichloro-3-(3,5-dichlorophenyl)cyclopropane-1-carboxamido)phenyl)benzamide]
[1]
  activity against BAW (percent mortality, averaged over eight wells): exhibited activity
[2]
  activity against YFM (scored based on mortality): exhibited activity

## O=C(Nc1cc(NC(=O)[C@H]2[C@H](c3cc(Cl)cc(Cl)c3)C2(Cl)Cl)ccc1Cl)c1ccc(C(F)(F)F)cc1 (racemic) [F82, trans-rac-N-(2-Chloro-5-(2,2-dichloro-3-(3,5-dichlorophenyl)cyclopropane-1-carboxamido)phenyl)-4-(trifluoromethyl)benzamide]
[1]
  activity against BAW (percent mortality, averaged over eight wells): exhibited activity
[2]
  activity against YFM (scored based on mortality): exhibited activity

## O=C(Nc1cc(NC(=O)[C@H]2[C@H](c3cc(Cl)cc(Cl)c3)C2(Cl)Cl)ccc1Cl)c1ccc(F)c(C(F)(F)F)c1 (racemic) [F83, trans-rac-N-(2-Chloro-5-(2,2-dichloro-3-(3,5-dichlorophenyl)cyclopropane-1-carboxamido)phenyl)-4-fluoro-3-(trifluoromethyl)benzamide]
[1]
  activity against BAW (percent mortality, averaged over eight wells): exhibited activity
[2]
  activity against YFM (scored based on mortality): exhibited activity

## COc1cccc(C(=O)Nc2cc(NC(=O)[C@H]3[C@H](c4cc(Cl)cc(Cl)c4)C3(Cl)Cl)ccc2Cl)c1 (racemic) [F84, trans-rac-N-(2-Chloro-5-(2,2-dichloro-3-(3,5-dichlorophenyl)cyclopropane-1-carboxamido)phenyl)-3-methoxybenzamide]
[1]
  activity against BAW (percent mortality, averaged over eight wells): exhibited activity
[2]
  activity against YFM (scored based on mortality): exhibited activity

## COc1ccc(C(=O)Nc2cc(NC(=O)[C@H]3[C@H](c4cc(Cl)cc(Cl)c4)C3(Cl)Cl)ccc2Cl)cc1 (racemic) [F85, trans-rac-N-(2-Chloro-5-(2,2-dichloro-3-(3,5-dichlorophenyl)cyclopropane-1-carboxamido)phenyl)-4-methoxybenzamide]
[1]
  activity against BAW (percent mortality, averaged over eight wells): exhibited activity
[2]
  activity against YFM (scored based on mortality): exhibited activity

## O=C(COCC(F)(F)F)Nc1c(F)ccc(NC(=O)[C@H]2[C@H](c3ccc(F)c(C(F)(F)F)c3)C2(Cl)Cl)c1F (racemic) [F95, trans-rac-2,2-Dichloro-N-(2,4-difluoro-3-(2-(2,2,2-trifluoroethoxy)acetamido)phenyl)-3-(4-fluoro-3-(trifluoromethyl)phenyl)cyclopropane-1-carboxamide]
[1]
  activity against BAW (percent mortality, averaged over eight wells): exhibited activity
[2]
  activity against YFM (scored based on mortality): exhibited activity

## O=C(Nc1cc(NC(=O)[C@H]2[C@H](c3ccc(F)c(C(F)(F)F)c3)C2(Cl)Cl)ccc1Cl)c1ccc(NC(=O)C(F)F)cc1F (racemic) [F111, trans-rac-N-(2-Chloro-5-(2,2-dichloro-3-(4-fluoro-3-(trifluoromethyl)phenyl)cyclopropane-1-carboxamido)phenyl)-4-(2,2-difluoroacetamido)-2-fluorobenzamide]
[1]
  activity against BAW (percent mortality, averaged over eight wells): exhibited activity
[2]
  activity against YFM (scored based on mortality): exhibited activity

## O=C(Nc1cc(NC(=O)[C@H]2[C@H](c3ccc(F)c(C(F)(F)F)c3)C2(Cl)Cl)ccc1Cl)c1ccc(NC(=O)C(F)(F)F)cc1F (racemic) [F112, trans-rac-N-(2-Chloro-5-(2,2-dichloro-3-(4-fluoro-3-(trifluoromethyl)phenyl)cyclopropane-1-carboxamido)phenyl)-2-fluoro-4-(2,2,2-trifluoroacetamido)benzamide]
[1]
  activity against BAW (percent mortality, averaged over eight wells): exhibited activity
[2]
  activity against YFM (scored based on mortality): exhibited activity

## CC(=O)Nc1ccc(C(=O)Nc2cc(NC(=O)[C@H]3[C@H](c4ccc(F)c(C(F)(F)F)c4)C3(Cl)Cl)ccc2Cl)c(C)c1F (racemic) [F113, trans-rac-4-Acetamido-N-(2-chloro-5-(2,2-dichloro-3-(4-fluoro-3-(trifluoromethyl)phenyl)cyclopropane-1-carboxamido)phenyl)-3-fluoro-2-methylbenzamide]
[1]
  activity against BAW (percent mortality, averaged over eight wells): exhibited activity
[2]
  activity against YFM (scored based on mortality): exhibited activity

## Cc1c(C(=O)Nc2cc(NC(=O)[C@H]3[C@H](c4ccc(F)c(C(F)(F)F)c4)C3(Cl)Cl)ccc2Cl)ccc(NC(=O)CC(F)(F)F)c1F (racemic) [F114, trans-rac-N-(2-Chloro-5-(2,2-dichloro-3-(4-fluoro-3-(trifluoromethyl)phenyl)cyclopropane-1-carboxamido)phenyl)-3-fluoro-2-methyl-4-(3,3,3-trifluoropropanamido)benzamide]
[1]
  activity against BAW (percent mortality, averaged over eight wells): exhibited activity
[2]
  activity against YFM (scored based on mortality): exhibited activity

## COCC(=O)Nc1ccc(C(=O)Nc2cc(NC(=O)[C@H]3[C@H](c4ccc(F)c(C(F)(F)F)c4)C3(Cl)Cl)ccc2Cl)c(C)c1F (racemic) [F115, trans-rac-N-(2-Chloro-5-(2,2-dichloro-3-(4-fluoro-3-(trifluoromethyl)phenyl)cyclopropane-1-carboxamido)phenyl)-3-fluoro-4-(2-methoxyacetamido)-2-methylbenzamide]
[1]
  activity against BAW (percent mortality, averaged over eight wells): exhibited activity
[2]
  activity against YFM (scored based on mortality): exhibited activity

## Cc1c(C(=O)Nc2cc(NC(=O)[C@H]3[C@H](c4ccc(F)c(C(F)(F)F)c4)C3(Cl)Cl)ccc2Cl)ccc(NC(=O)COCC(F)(F)F)c1F (racemic) [F116, trans-rac-N-(2-Chloro-5-(2,2-dichloro-3-(4-fluoro-3-(trifluoromethyl)phenyl)cyclopropane-1-carboxamido)phenyl)-3-fluoro-2-methyl-4-(2-(2,2,2-trifluoroethoxy)acetamido)benzamide]
[1]
  activity against BAW (percent mortality, averaged over eight wells): exhibited activity
[2]
  activity against YFM (scored based on mortality): exhibited activity

## CC(=O)Nc1ccc(C(=O)Nc2cc(NC(=O)[C@H]3[C@H](c4ccc(F)c(C(F)(F)F)c4)C3(Cl)Cl)ccc2Cl)c(F)c1 (racemic) [F117, trans-rac-4-Acetamido-N-(2-chloro-5-(2,2-dichloro-3-(4-fluoro-3-(trifluoromethyl)phenyl)cyclopropane-1-carboxamido)phenyl)-2-fluorobenzamide]
[1]
  activity against BAW (percent mortality, averaged over eight wells): exhibited activity
[2]
  activity against YFM (scored based on mortality): exhibited activity
